According to US9604945B2, “Sydnonimines-specific dopamine reuptake inhibitors and their use in treating dopamine related disorders” (priority 2007, dated 2017):

What was measured:
[1] = test system: male Swiss Webster mice; assay: Time-course (8 hr) mouse locomotor activity testing; assay type: in vivo; details: for Duration of suppression of spontaneous locomotor activity: FIGS. 6A and 6B; for ID50 (dose producing 1/2 maximal depressant activity): IP; for Planned comparisons against the vehicle group, horizontal activity counts in period of maximal depressant effect: ps<0.05
Description: A dose response study was conducted of locomotor depression induced by the compound of Example 3, according to NIDA's Medication Development Division (MDD) locomoter activity studies standard protocol. The study was conducted using 40 Digiscan locomotor activity testing chambers (40.5×40.5×30.5 cm) housed in sets of two, within sound attenuating chambers. A panel of infrared beams (16 beams) and corresponding photodetectors were located in the horizontal direction along the sides of each activity chamber. A 7.5 W incandescent light above each chamber provided dim illumination. Fans provided an 80 dB ambient noise level within the chamber. Separate groups of 8 non-habituated male Swiss Webster mice (Hsd:ND4, aged 2-3 months) were injected via the intraperitoneal (IP) route with either vehicle (2% methyl cellulose) or the compound of Example 3, above, (3, 10, 30 or 100 mg/kg) twenty minutes prior to locomotor activity testing. Just piro to placement in the apparatus, all mice received a saline injection IP. In all studies, horizontal activity (interruption of photocell beams) was measured for 1 hour within 10 minute periods. Testing was conducted with one mouse per activity chamber.
A time course/dose response study of the locomotor depression inducing effect of the compound of Example 3 was conducted, according to the same MDD locomotor activity studies time course protocol described immediately above, except that groups of 8 mice were injected with either vehicle (2% methylcellulose) or the compound of Example 3 (3, 10, 30 or 100 mg/kg), immediately prior to locomotor activity testing. Behavioral observations were recorded on each mouse at 30, 120 and 480 minutes following 100 mg/kg of the test compound. The vehicle used in this study was 2% methylcellulose.
A separate time course/dose response study of the locomotor depression inducing effect of the compound of Example 6 was also conducted, under the same conditions described above for testing of the compound of Example 3. Additional groups of 8 mice were injected with either vehicle (2% methylcellulose) or the test compound (3, 10, 30 or 100 mg/kg), immediately prior to locomotor activity testing. Behavioral observations were recorded on each mouse at 30, 120 and 480 minutes following 100 mg/kg of the test compound. The vehicle used in this study was 2% methylcellulose.
(§1) Depressant effects of 30 and 100 mg/kg occurred within 10 minutes following injection and lasted 140 to 160 minutes. The period 20-50 min was selected for analysis of dose-response data because this was the time period in which maximal suppression first appeared as a function of dose. The mean average horizontal activity counts/10 min for this 30-min period were fit to a linear function of log10 dose of the descending portion of the dose-effect curve (3 to 100 mg/kg dose range).
as §1, with “of” for “of 30 and”, “lasted” for “lasted 140 to”, “50-80” for “20-50”, “(10” for “(3”

[2] = Tolerability and observable behavior changes; assay type: in vivo; details: for Well tolerated dose: in vivo; for Duration of observable changes in behavior: occurred in minutes
[3] = test system: mice; assay: Open Field testing; assay type: in vivo, mouse; details: for Anxiolytic effects in Open Field testing: FIGS. 9A-9D
Description: Open Field testing was also performed. In carrying out this testing, individually housed male and female mice aged 8-12 weeks were used. The mice were maintained on a reverse L:D/12 p.m.: 12 a.m. cycle in a barrier facility. Food and water were available ad libitum. Testing occurred towards the end of the light cycle between 6-12 a.m. Mice were acclimated to the testing room for at least 30 minutes. The assay was performed in a custom-made Open Field Apparatus. Each chamber was a 50 by 50 cm square. The experiment was recorded and tracked by a tracking system obtained from Viewpoint.
The time and the path length in the center of the open field were determined. The center of the open field is defined as a 13.5×13.5 cm square in the geometric center of the arena. The percent of path in the center is calculated as
[formula] For each mouse, the total path length and path length for 60 minutes at 5 minute intervals was determined as a measure of locomotor activity. In addition, feces produced by each experimental animal during the test was counted. Each chamber was cleaned between individual mouse testing.
Path length for 60 minutes at 5 minute intervals was analyzed by repeat measures using SPSS software. All other parameters were compared using unpaired t-test (GraphPad Prism).

[4] = test system: mice; assay: Irwin behavioral battery; assay type: in vivo, mouse; details: FIGS. 7A-7C
Description: To further characterize the pharmacological effects of these compounds, Irwin behavioral battery testing was performed.
Testing occurred towards the end of the light cycle between 8-11 a.m. (lights go off at 11:00 a.m.). The mice were acclimated to the testing room for at least 30 minutes. The Irwin test equipment (timer, viewing jar and support, open arena, grid, ruler, sound box, wood stocks, kimwipes box) was placed under a laminar flow hood. The mouse was first placed in the viewing jar for five (5) minutes and the following parameters were scored:
At the end of the 5-minute period, the viewing jar with the muose in it was transferred to the arena, where the jar was disassembled and the mouse released into the arena. The mouse was not handled by the experimenter. The following parameters were scored in the arena in the following order:
Then the mouse was picked up by its tail and kept above the arena to score the following set of parameters:
The mouse was then placed in supine restraint to score the below parameters in the following order:
The final three parameters were scored with the mouse above or in the arena: […]

[5] = test system: male mice; assay: Accelerating rotarod assay; assay type: in vivo, mouse; details: 10 and 90 mg/kg, FIG. 11
Description: Rotarod assays were also performed using the experimental protocol and design set forth below. Individually housed male mice aged 8-12 weeks were used for this experiment. Mice were maintained on a reverse L:D/12 p.m.: 12 a.m. cycle in a barrier facility with food and water available ad libitum. Testing occurred towards the end of the light cycle between 6-12 a.m. Mice were acclimated to the testing room for at least 30 minutes.
The assay was carried out using four EzRod test chambers kept in a laminar hood for testing. For the accelerating rotarod paradigm, mice were given 10 trials with the maximum duration of 3 minute and a 30-second intertrial interral (ITI). Each mouse was placed on the EZRod machines and the latency to fall was recorded for all trials. If the mouse fell or 3 minutes elapsed, the mouse was left in the bottom of the EzRod test chamber for 30 seconds before starting the next trial.
The latency to fall was compared between the two groups by analysis of variance (ANOVA) with repeated measures.

Row | SMILES | Duration of depressant effects ([1]; 100 mg/kg IP) [min] | Onset of depressant effects following injection ([1]; 100 mg/kg IP) [min] | Duration of suppression of spontaneous locomotor activity [1] | ID50 (dose producing 1/2 maximal depressant activity) ([1]; period 50-80 min, 10 to 100 mg/kg dose range) [mg/kg] | Planned comparisons against the vehicle group, horizontal activity counts in period of maximal depressant effect [1] | Lethargic effect (compared with Example 3) ([2]; higher concentrations) | Well tolerated dose [2] | Duration of observable changes in behavior [2] [h] | Anxiolytic effects in Open Field testing ([3]; 10 and 90 mg/kg) | Onset of depressant effects following injection ([1]; 30 and 100 mg/kg IP) [min] | ID50 (dose producing 1/2 maximal depressant activity) ([1]; period 20-50 min, 3 to 100 mg/kg dose range) [mg/kg] | Dosage above which subjects became lethargic [2] | Behavioral effects in Irwin Behavioral Battery (spontaneous activity, grip strength, limb tone) [4] | Locomotor activity in open field testing ([3]; 10 and 90 mg/kg, FIG. 8) | Number of fecal boli in open field testing ([3]; mouse, in vivo) | Rotarod performance [5]
1 | O=C(/N=c1\[cH-][n+](CCCc2ccccc2)no1)Nc1ccccc1 [Example 6, N-phenylcarbamoyl-3-(phenylpropyl)-sydnonimine] | 160 | ≤ 10 | at least 3 hours | ~30.2 | significant depressant effect for 100 mg/kg | this effect was reduced | at least 200 mg/kg | 2 to 3 | induces anxiolytic effects | – | – | – | – | – | – | –
2 | Cc1ccc(C[n+]2[cH-]/c(=N\C(=O)Nc3ccccc3)on2)cc1 [Example 3, N-phenylcarbamoyl-3-(p-methyl-benzyl)-sydnonimine] | – | – | at least 3 hours | – | significant depressant effect for 30 and 100 mg/kg | – | at least 200 mg/kg | 2 to 3 | demonstrable anxiolytic effects | ≤ 10 | ~24.0 | above 125 kg/mg | induced significant behavioral effects | effective to reduce locomotor activity | no effect | did not affect rotarod performance
